According to PubChem BioAssay (NCI):
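A five-concentration, 48-hour dose response in 96-well plates underlies each endpoint, interpolated linearly between surrounding concentrations. The concentration for 50% growth inhibition is given as GI50. TGI: total growth inhibition.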

Legend:
Assay in all cases: NCI-60 cell line screen, 48 h
ACHN renal = system: ACHN renal
NCI-H226 lung = system: NCI-H226 lung
UACC-257 melanoma = system: UACC-257 melanoma
A498 renal = system: A498 renal
HCT-116 colon = system: HCT-116 colon
MOLT-4 leukemia = system: MOLT-4 leukemia
786-0 renal = system: 786-0 renal
DU-145 prostate = system: DU-145 prostate
HS 578T breast = system: HS 578T breast
NCI/ADR-RES ovarian = system: NCI/ADR-RES ovarian

| SMILES | TGI (ACHN renal) [µM] | TGI (NCI-H226 lung) [µM] | TGI (UACC-257 melanoma) [µM] | TGI (A498 renal) [µM] | TGI (HCT-116 colon) [µM] | TGI (MOLT-4 leukemia) [µM] | TGI (786-0 renal) [µM] | TGI (DU-145 prostate) [µM] | TGI (HS 578T breast) [µM] | TGI (NCI/ADR-RES ovarian) [µM] | GI50 (DU-145 prostate) [µM] | GI50 (ACHN renal) [µM] | GI50 (HS 578T breast) [µM] | GI50 (NCI/ADR-RES ovarian) [µM] | GI50 (NCI-H226 lung) [µM] | GI50 (UACC-257 melanoma) [µM] | GI50 (A498 renal) [µM] | GI50 (MOLT-4 leukemia) [µM] | GI50 (786-0 renal) [µM] | GI50 (HCT-116 colon) [µM] |
| --- | --- | --- | --- | --- | --- | --- | --- | --- | --- | --- | --- | --- | --- | --- | --- | --- | --- | --- | --- | --- |
| COc1ccc2c(c1)CCc1c-2n[nH]c1-c1[nH]nc2c1CCc1cc(OC)ccc1-2 | > 100 | 85.9 | > 100 | > 100 | > 100 | > 100 | 41.1 |  |  |  |  |  |  |  |  |  |  |  |  |  |
| C[C@]12C[C@H](O)[C@H]3[C@@H](CCC4=CC(=O)CC[C@@]43C)[C@@H]1CC[C@@H]2c1csc(-c2ccccc2)n1 | > 100 | > 100 | > 100 | > 100 | > 100 |  | > 100 | > 100 | > 80 | > 100 |  |  |  |  |  |  |  |  |  |  |
| COc1ccc([C@@H]2OC(=O)C3C2C(=O)O[C@H]3c2ccc(OC)c(OC)c2)cc1OC (stereo not given in full) | > 100 | > 100 | > 100 | > 100 | > 100 | > 100 | > 100 |  |  |  |  |  |  |  |  |  |  |  |  |  |
| COc1ccc2c(c1)CN1CCc3c(cc(OC)c(OC)c3OC)C1C2 (stereo not given) | > 100 | > 100 | > 100 |  | > 100 | > 100 | > 100 |  |  |  |  |  |  |  |  |  |  |  |  |  |
| CN1CCN(CCCOc2cc(O)c3c(=O)cc(-c4ccccc4)oc3c2)CC1 | 29.4 | 37 | 41.1 | 43.4 |  | 38.8 | 43.3 | 73.7 | 52.9 | 43.2 | 25.3 | 16 | 23 | 18.6 | 19.5 | 19.4 | 22 | 17.3 | 20.6 |  |
| CN(N)c1nc(N)c(C#N)c(C#N)c1C#N | > 10 |  | > 10 |  | > 10 | > 10 | > 10 | > 10 | > 10 | > 10 |  |  |  |  |  |  |  |  |  |  |
| CC1=CCCC2C(C=O)(C1)CC(C)C2(CO)CC/C(=C/CO)CO (stereo not given) | > 100 | > 100 | > 100 | > 100 | > 100 | > 100 | > 100 |  |  |  |  |  |  |  |  |  |  |  |  |  |
| CCCCn1c(=O)c(/C=C/C(=O)/C=C/c2cc3ccccc3n(CCCC)c2=O)cc2ccccc21 | 3.07 | 6 | 3 |  |  |  | 3.08 | 2.78 | 23.7 | 13.5 | 1.47 | 1.7 | 3.01 | 3.01 | 2.51 | 1.61 |  |  | 1.35 |  |
| CCC(CO)Nc1nc2c(c(=O)n(C)c(=O)n2C)n1CCO (stereo not given) | > 100 | > 100 | > 100 |  | > 100 | > 100 | > 100 |  |  |  |  |  |  |  |  |  |  |  |  |  |
| N#Cc1cc(S(=O)(=O)Nc2nc3ccccc3o2)c(SCc2ccccc2)cc1Cl | > 100 | 80.8 | 55.9 | 43.7 | 38.6 |  | 45.2 | 46.7 | 62 | 75.8 | 21 | 32.6 | 25.4 | 29.6 | 31.6 | 22.3 | 21.3 |  | 21.8 | 17.8 |
